According to patent US10285969B2, “Mangiferin-6-O-berberine salt and preparation method and use thereof” (CHANGZHOU DEZE MEDICAL SCIENCE CO., LTD, priority 2015, dated 2019):

Assays:
[1] = Solubility in the hydrochloric acid solution of pH 1; type: physicochemical
Procedure: (§1) Sample A: Mangiferin-6-O-berberine salt dihydrate
(§2) Sample B: Mangiferin-berberine salt yielded using the method as disclosed in WO2010/145192A1.
2. Instrument: PHS-3C pH meter (Shanghai Kangyi)
Take pure water; add hydrochloric acid to adjust pH to 1 (25° C.±2° C.). Take the water 50 ml to different triangular flask; weigh up accurately 200 mg sample A and sample B which have been ground into powders and put them into the triangular flasks separately, shake and observe dissolved phenomena.
Take the water 50 ml to different triangular flasks; weigh up accurately sample A 400 mg and 600 mg which have been ground into powders and put the powders into the triangular flasks separately, shake and observe dissolving phenomena.

[2] = Pharmacokinetic comparison after single intragastric administration to SD rats; type: in vivo
Procedure: as §1
Sample B: Mangiferin-berberine salt yielded using the method disclosed in WO2010/145192A1.
A single intragastric administration of sample of A or B was given to SD rats at the dosage of 100 mg/kg and blood was sampled from jugular vein at 0, 0.083, 0.25, 0.5, 1, 1.5, 2, 3, 4, 5, 6, 7, 8, 12 and 24 h.
Preparation of the mangiferin reference solution: Mangiferin reference was weighed accurately and put into a 25 ml volumetric flask; methanol was added to make mangiferin dissolve, diluted to graduation. The mangiferin reference mother liquor is yielded for reserve. An appropriate amount of mangiferin reference mother liquor was taken out accurately and diluted to prepare the mangiferin reference solutions having a concentration of 2, 5, 10, 50, 100, 200 ng/ml.
Preparation of the berberine hydrochloride reference solution: The berberine hydrochloride reference was weighed accurately and put into a 25 ml volumetric flask; methanol was added to make the berberine hydrochloride dissolve, and dilute to graduation. The berberine hydrochloride reference mother liquor was yielded for reserve. An appropriate amount of berberine hydrochloride reference mother liquor was taken out accurately and diluted to prepare reference solution whose berberine concentration is 0.2, 0.5, 2, 10, 20, 50 ng/ml.
Preparation of the internal standard solution: Glibenclamide was weighed accurately and put into a 25 ml volumetric flask; acetonitrile was added to make glibenclamide dissolve, and dilute to graduation. The internal standard solution of glibenclamide was yielded, having a concentration of 50 ng/ml.
Blood sample processing method: Rat blood was put in a heparin anticoagulant centrifuge tube and centrifuged for 10 minutes at 6000 rpm, and the plasma was taken for reserve at −20° C. […]
The pharmacokinetic parameters are calculated with a non compartmental model in Pharsight Phoenix 6.3.

[3] = test system: AMPK; experiment: Activation of AMPK in L6 cells (Western blot of phospho-AMPK and phospho-ACC); type: cell-based, rat; conditions: 1.25-5 μmol/L, 3 hours, dose-dependent
Procedure: The mangiferin-6-O-berberine salt dihydrate yielded using the method as disclosed in the above examples dissolves in DMSO. Before use, the mangiferin-6-O-berberine salt dihydrate is diluted by a culture medium or HBS. The ultimate concentration of DMSO is no more than 0.2%.
The rat L6 cell line is purchased from the ATCC. HG-DMEM is purchased GIBCO™. Fetal bovine serum (FBS) is purchased from Hyclone. Anti-AMPK, anti-ACC, antiphospho-AMPK (Thr172), antiphospho-ACC (ser79) polyclonal antibodies are purchased from Cell Signal Technology.
L6 cells were grown in HG-DMEM containing 10% (v/v) FBS, 100 U/ml penicillin and 100 U/ml streptomycin in a humidified atmosphere of 5% CO2 at 37° C. When the cells covered 60%, the medium was switched to HG-DMEM with 2% FBS and the culture medium was replaced every two days until the cells differentiation reached 90%.
Cells in 6-well plates were starved in serum-free HG-DMEM, and then different concentration gradient samples were added into serum-free HG-DMEM; the concentration of DMSO is 0.2%. The samples incubated for 3 hours in the cells. […]
Samples were electrophoresed on 10% SDS-polyacrylamide gels, and transferred to […] membranes under 100V and 1-2 hours in the transmembrane instrument. Protein in the gel was transferred to nitrocellulose membrane under the state of half dry, and the band was determined by Ponceau S (Ponceau S). […]

[4] = Stability under a high-humidity environment (moisture absorption weight gain); type: physicochemical
Procedure: as §1, §2
2. Instrument: One ten-thousandth electronic balance (Sartorius, Germany)
Weigh up accurately appropriate amount sample A in 3 glass gardens and sample B in 3 glass gardens separately; put the samples in a drug stability chamber with the condition being set to: 25° C./90% RH±5% RH and storage for 10 days. Weigh the samples accurately on the fifth day and tenth day; record the results of weighing and calculate weight percentage of moisture absorption.

[5] = test system: non-alcoholic fatty liver combined with type 2 diabetes mellitus; experiment: Improvement of metabolic disorder indices in patients, oral tablets for six months; type: in vivo, human; conditions: after six months, tablets 75 mg two times per day oral
Procedure: The patients according to the criteria of diagnosing non-alcoholic fatty liver combined with type 2 diabetes mellitus oral administrated mangiferin-6-O-berberine salt tablets 75 mg (for the preparation method, reference may be made to Example 6) two times per day.

[6] = Physical and chemical properties: solubility in solvents; type: physicochemical
Source text: The chemical structure of the mangiferin-6-O-berberine salt is as follows: […]

[7] = hydrochloric acid solution of pH 1
[8] = single intragastric 100 mg/kg, 0-24 h, n = 3, mean ± SD

COc1ccc2cc3[n+](cc2c1OC)CCc1cc2c(cc1-3)OCO2.O=c1c2cc(O)c([O-])cc2oc2cc(O)c([C@@H]3O[C@H](CO)[C@@H](O)[C@H](O)[C@H]3O)c(O)c12 [Mangiferin-6-O-berberine salt]
solubility relative to the mangiferin-berberine salt disclosed in WO2010/145192A1 [1, 7]: three times | stability (of the solution) compared with the mangiferin-berberine salt disclosed in WO2010/145192A1 [1, 7]: much better | solubility in the hydrochloric acid solution of pH 1 ([1]; pH 1, 25° C.±2° C.): 12 mg/ml | AUC relative to that of the mangiferin-berberine salt ([2]; oral administration 100 mg/kg): 2 times | AUC0-t of Berberine in plasma [2, 8]: 669.72 ± 312.83 ng·h/mL | AUC0-t of Mangiferin in plasma [2, 8]: 1831.11 ± 510.25 ng·h/mL | phosphorylation of ACC [3]: enhances significantly | phosphorylation of AMPK [3]: enhances significantly | weight percentage of moisture absorption (hygroscopicity) compared with the mangiferin-berberine salt disclosed in WO2010/145192A1 [4]: much smaller | ALT ([5]; n = 8, mean ± SD, base line 136.50): 51.85 U/L | APRI index ([5]; n = 8, base line 0.447): 0.203 | Urine microalbumin (1^+ is seen as 1) ([5]; n = 8, base line 0.60): 0 | TG ([5]; n = 8, base line 3.56): 1.41 mmol/L | Atherogenic index (AI) ([5]; n = 8, base line 4.12): 3.10 | HbA1C ([5]; n = 8, base line 7.18): 5.80% | Weight ([5]; n = 8, base line 73.35): 62.34 kg | AST ([5]; n = 8, base line 83.32): 39.20 U/L | Diastolic pressure ([5]; n = 8, base line 94.79): 76.39 mmHg | Systolic pressure ([5]; n = 8, base line 153.77): 125.86 mmHg | INS ([5]; n = 8, base line 197.99): 56.08 pmol/L | Liver color Doppler ultrasound ([5]; n = 8, base line fatty liver): normal | ISI ([5]; n = 8, base line −7.12): −5.80 | solubility in dilute hydrochloric acid ([6]; dilute hydrochloric acid): slightly soluble | solubility in methanol ([6]; methanol): slightly soluble | solubility in water ([6]; water): almost insoluble
